Assay results reported in patent US20160058787A1 (priority 2014, published 2016).

Settings: in vivo

Substance: sodium polystyrene sulfonate [NSPS]
- reduction of the toxicity and adverse effects of SPS: over 100 folds
